Data taken from ChEMBL document CHEMBL4038308, “Lipophosphonoxins II: Design, Synthesis, and Properties of Novel Broad Spectrum Antibacterial Agents” (J Med Chem, 2017).
Converted amounts (≈) assume the structure as drawn.

What was measured:
Escherichia coli [1] = experiment: Antibacterial activity against Escherichia coli CCM 3954 after 24 hrs by microdilution method; format: functional; details: CCM 3954, 24 h
Pseudomonas aeruginosa [2] = experiment: Antibacterial activity against Pseudomonas aeruginosa CCM 3955 after 24 hrs by microdilution method; format: functional; details: CCM 3955, 24 h
Enterococcus faecalis = experiment: Antibacterial activity against Enterococcus faecalis CCM 4224 after 24 hrs by microdilution method; format: functional; details: CCM 4224, 24 h
Staphylococcus aureus [3] = experiment: Antibacterial activity against Staphylococcus aureus CCM 4223 after 24 hrs by microdilution method; format: functional; details: CCM 4223, 24 h
Bacillus subtilis = experiment: Antibacterial activity against Bacillus subtilis after 24 hrs by microdilution method; format: functional
Streptococcus agalactiae = experiment: Antibacterial activity against Streptococcus agalactiae after 24 hrs by microdilution method; format: functional
Escherichia coli [4] = experiment: Antibacterial activity against Escherichia coli 16702 after 24 hrs by microdilution method; format: functional; details: Escherichia coli, 16702, 24 h
Pseudomonas aeruginosa [5] = experiment: Antibacterial activity against Pseudomonas aeruginosa 16575 after 24 hrs by microdilution method; format: functional; details: Pseudomonas aeruginosa, 16575, 24 h
Staphylococcus aureus [6] = experiment: Antibacterial activity against methicillin-resistant Staphylococcus aureus 4591 clinical isolates after 24 hrs by microdilution method; format: functional; details: Staphylococcus aureus, 4591, 24 h
[7] = tested on: Staphylococcus haemolyticus; experiment: Antibacterial activity against fluoroquinolne-resistant Staphylococcus haemolyticus 16568 after 24 hrs by microdilution method; format: functional; details: Staphylococcus haemolyticus, 16568, 24 h
[8] = tested on: Staphylococcus epidermidis; experiment: Antibacterial activity against Staphylococcus epidermidis 8700/B after 24 hrs by microdilution method; format: functional
Enterococcus faecium = experiment: Antibacterial activity against vancomycin-resistant Enterococcus faecium 419/ana clinical isolates after 24 hrs by microdilution method; format: functional
Salmonella enteritidis = experiment: Antibacterial activity against Salmonella enteritidis S2-25 after 24 hrs by microdilution method; format: functional, Salmonella enterica subsp. enterica serovar Enteritidis; details: Salmonella enterica, S2-25, 24 h
Acinetobacter baumannii = experiment: Antibacterial activity against Acinetobacter baumannii A3-08 after 24 hrs by microdilution method; format: functional; details: A3-08, 24 h
[9] = tested on: Stenotrophomonas maltophilia; experiment: Antibacterial activity against Stenotrophomonas maltophilia S2-23 after 24 hrs by microdilution method; format: functional; details: S2-23, 24 h
Burkholderia multivorans = experiment: Antibacterial activity against Burkholderia multivorans after 24 hrs by microdilution method; format: functional

Row | SMILES | MIC (Escherichia coli [1]) [µg/mL] | MIC (Pseudomonas aeruginosa [2]) [µg/mL] | MIC (Enterococcus faecalis) [µg/mL] | MIC (Staphylococcus aureus [3]) [µg/mL] | MIC (Bacillus subtilis) [µg/mL] | MIC (Streptococcus agalactiae) [µg/mL] | MIC (Escherichia coli [4]) [µg/mL] | MIC (Pseudomonas aeruginosa [5]) [µg/mL] | MIC (Staphylococcus aureus [6]) [µg/mL] | MIC [7] [µg/mL] | MIC [8] [µg/mL] | MIC (Enterococcus faecium) [µg/mL] | MIC (Salmonella enteritidis) [µg/mL] | MIC (Acinetobacter baumannii) [µg/mL] | MIC [9] [µg/mL] | MIC (Burkholderia multivorans) [µg/mL]
1 | CCCCCCCCCCCCCCOP(=O)(CCN(CCN)CCN)OC[C@H]1O[C@@H](n2ccc(=O)[nH]c2=O)[C@H](O)[C@@H]1O (stereo partly specified) | 12.5 (≈ 19.7 µM) | 3.13 (≈ 4.94 µM) | 100 (≈ 158 µM) | 25 (≈ 39.4 µM) | 6.25 (≈ 9.86 µM) | 6.25 (≈ 9.86 µM) | 6.25 (≈ 9.86 µM) | 6.25 (≈ 9.86 µM) | 12.5 (≈ 19.7 µM) | 3.13 (≈ 4.94 µM) | 3.13 (≈ 4.94 µM) | 100 (≈ 158 µM) | 12.5 (≈ 19.7 µM) | 25 (≈ 39.4 µM) | 6.25 (≈ 9.86 µM) | 12.5 (≈ 19.7 µM)
2 | CCCCCCCCCCCCOP(=O)(CCN(CCCN)CCCN)OC[C@H]1O[C@@H](n2ccc(=O)[nH]c2=O)[C@H](O)[C@@H]1O (stereo partly specified) | 25 (≈ 39.4 µM) | 3.13 (≈ 4.94 µM) | 100 (≈ 158 µM) | 25 (≈ 39.4 µM) | 3.13 (≈ 4.94 µM) | 3.13 (≈ 4.94 µM) | 25 (≈ 39.4 µM) | 50 (≈ 78.9 µM) | 200 (≈ 316 µM) | 200 (≈ 316 µM) | 6.25 (≈ 9.86 µM) | 25 (≈ 39.4 µM) | 6.25 (≈ 9.86 µM) | 6.25 (≈ 9.86 µM) | 6.25 (≈ 9.86 µM) | > 200
3 | CCCCCCCCCCCCCCCCOP(=O)(CCN(CCCN)CCCN)OC[C@H]1O[C@@H](n2ccc(=O)[nH]c2=O)[C@H](O)[C@@H]1O (stereo partly specified) | 3.13 (≈ 4.54 µM) | 6.25 (≈ 9.06 µM) | 50 (≈ 72.5 µM) | 12.5 (≈ 18.1 µM) | 0.78 (≈ 1.13 µM) | 3.13 (≈ 4.54 µM) | 3.13 (≈ 4.54 µM) | 3.13 (≈ 4.54 µM) | 25 (≈ 36.2 µM) | 3.13 (≈ 4.54 µM) | 3.13 (≈ 4.54 µM) | 25 (≈ 36.2 µM) | 3.13 (≈ 4.54 µM) | 3.13 (≈ 4.54 µM) | 3.13 (≈ 4.54 µM) | 50 (≈ 72.5 µM)
4 | CCCCCCCCCCCCCCCOP(=O)(CCN(CCN)CCN)OC[C@H]1O[C@@H](n2ccc(=O)[nH]c2=O)[C@H](O)[C@@H]1O (stereo partly specified) | 1.56 (≈ 2.41 µM) | 1.56 (≈ 2.41 µM) | 12.5 (≈ 19.3 µM) | 6.25 (≈ 9.65 µM) | 0.78 (≈ 1.2 µM) | 3.13 (≈ 4.83 µM) | 1.56 (≈ 2.41 µM) | 1.56 (≈ 2.41 µM) | 6.25 (≈ 9.65 µM) | 1.56 (≈ 2.41 µM) | 1.56 (≈ 2.41 µM) | 100 (≈ 154 µM) | 1.56 (≈ 2.41 µM) | 3.13 (≈ 4.83 µM) | 3.13 (≈ 4.83 µM) | 50 (≈ 77.2 µM)
5 | CCCCCCCCCCCCCCCCOP(=O)(CCN(CCN)CCN)OC[C@H]1O[C@@H](n2ccc(=O)[nH]c2=O)[C@H](O)[C@@H]1O (stereo partly specified) | 3.13 (≈ 4.73 µM) | 3.13 (≈ 4.73 µM) | 12.5 (≈ 18.9 µM) | 6.25 (≈ 9.44 µM) | 1.56 (≈ 2.36 µM) | 1.56 (≈ 2.36 µM) | 3.13 (≈ 4.73 µM) | 3.13 (≈ 4.73 µM) | 6.25 (≈ 9.44 µM) | 3.13 (≈ 4.73 µM) | 3.13 (≈ 4.73 µM) | 50 (≈ 75.5 µM) | 3.13 (≈ 4.73 µM) | 6.25 (≈ 9.44 µM) | 1.56 (≈ 2.36 µM) | 25 (≈ 37.8 µM)
6 | CCCCCCCCCCCCCCCOP(=O)(CCN1C[C@@H](O)[C@@H](N)C1)OC[C@H]1O[C@@H](n2ccc(=O)[nH]c2=O)[C@H](O)[C@@H]1O (stereo partly specified) | 6.25 (≈ 9.66 µM) | 25 (≈ 38.7 µM) | 12.5 (≈ 19.3 µM) | 12.5 (≈ 19.3 µM) | 6.25 (≈ 9.66 µM) | 3.13 (≈ 4.84 µM) | 6.25 (≈ 9.66 µM) | 12.5 (≈ 19.3 µM) | 25 (≈ 38.7 µM) | 12.5 (≈ 19.3 µM) | 6.25 (≈ 9.66 µM) | 50 (≈ 77.3 µM) | 6.25 (≈ 9.66 µM) | 6.25 (≈ 9.66 µM) | 6.25 (≈ 9.66 µM) | > 200
